Seven compounds from patent US12202835B2, “Substituted aromatic ring-linked dioxinoquinazolines and dioxinoquinolines as kinase inhibitors” (BEIJING SCITECH-MQ PHARMACEUTICALS LIMITED, priority 2018, dated 2025) can be followed below.

Broadly, the pIC50 is −log10 of the IC50, conventionally taken in molar units.

The structures appear in SMILES notation. pIC50: −log10 of the molar value. Where only a bound is given, the exact number is not on record here.

For assay [1], the target named is TRKA kinase (Homo sapiens (Human), UniProt P04629). The assay can be described thus: Assay of small molecular compounds for inhibiting the activity of TRKA kinase (LANCE TR-FRET). The assay is classed as biochemical. Put shortly: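 LANCE TR-FRET with ULight-TK peptide; compounds pre-incubated 5 min with TRKA (2× solution 2 nM), then substrate/ATP added (4× mix: 400 nM peptide, 40 μM ATP). Reaction 60 min at room temperature in dark, 1% DMSO final; stopped, detection developed 60 min, signal read.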
TRKA kinase, sequence (P04629 33-796): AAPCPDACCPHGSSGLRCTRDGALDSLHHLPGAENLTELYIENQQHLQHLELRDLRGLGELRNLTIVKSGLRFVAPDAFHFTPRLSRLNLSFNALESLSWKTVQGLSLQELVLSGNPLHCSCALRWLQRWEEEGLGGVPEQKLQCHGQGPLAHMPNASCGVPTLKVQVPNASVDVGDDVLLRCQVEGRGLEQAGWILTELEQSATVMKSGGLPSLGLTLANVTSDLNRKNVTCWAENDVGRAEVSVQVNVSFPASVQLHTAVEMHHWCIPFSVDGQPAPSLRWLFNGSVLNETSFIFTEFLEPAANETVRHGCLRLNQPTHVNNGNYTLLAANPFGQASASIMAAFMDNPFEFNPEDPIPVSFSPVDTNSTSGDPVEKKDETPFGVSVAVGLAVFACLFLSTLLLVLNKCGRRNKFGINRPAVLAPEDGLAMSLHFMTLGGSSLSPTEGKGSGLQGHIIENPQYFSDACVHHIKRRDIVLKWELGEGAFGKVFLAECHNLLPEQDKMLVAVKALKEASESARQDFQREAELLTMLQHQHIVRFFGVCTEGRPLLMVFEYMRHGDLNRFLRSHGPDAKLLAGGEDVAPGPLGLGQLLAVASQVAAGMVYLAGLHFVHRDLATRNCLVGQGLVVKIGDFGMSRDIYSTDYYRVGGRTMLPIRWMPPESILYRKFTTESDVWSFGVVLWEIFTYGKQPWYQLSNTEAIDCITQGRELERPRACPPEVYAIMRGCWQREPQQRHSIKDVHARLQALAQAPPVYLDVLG

Assay [2] addresses c-MET kinase (Homo sapiens (Human), UniProt P08581). The assay can be described thus: Assay of small molecular compounds for inhibiting the activity of c-MET kinase (LANCE TR-FRET). The assay is classed as biochemical. The following applies: read-out: CMET IC50. The procedure: (§1) The assay is based on the LANCE TR-FRET technology of Perkin Elmer Inc., and the assay method is as follows: • 1. Dilution of compounds: a total of 11 concentrations were obtained using a 3-fold gradient dilution from the highest concentration of 2500 nM (the maximum final concentration of the drug used in this assay was 2500 nM, and the minimum final concentration was 0.042 nM). • 2. 2.5 μL of the gradient-diluted compounds were taken with a transfer pipette to a 384-well plate. • 3. Addition of enzyme: 5 μL of 2×c-MET kinase solution (with a concentration of 2 nM) was taken with a transfer pipette to the corresponding reaction well of the 384-well plate, mixed well and pre-reacted at room temperature for 5 minutes. • 4. 2.5 μL 4× Ultra ULight™-JAK-1 (Tyr1023) Peptide (with a concentration of 400 nM)/ATP (with a concentration of 40 μM) mixture was taken with a transfer pipette to the corresponding reaction well of the 384-well plate. • 5. Negative control: 2.5 μL/well 4× substrate/ATP mixture and 7.5 μL 1× Kinase Assay Buffer were added to the wells of the 384-well plate. • 6. Positive control: 2.5 μL/well 4× substrate/ATP mixture, 2.5 μL/well 1× Kinase Assay Buffer containing 16% DMSO, and 5 μL/well 2× c-MET kinase solution were added to the 384-well plate. The final concentration of DMSO in the reaction system was 4%. • 7. The mixture was mixed well and then centrifuged and reacted at room temperature in dark for 60 min. • 8. Termination of the enzymatic reaction: 5 μL of 4× stop solution was taken with a transfer pipette to the wells of the 384-well plate, mixed and then centrifuged, and reacted at room temperature for 5 min. • 9. Development of the reaction: 5 μL of 4× detection solution was taken with a transfer pipette to the wells of the 384-well plate for color development, and the mixture was mixed and then centrifuged and reacted at room temperature for 60 min. • 10. The 384-well plate was placed into the Envision plate reader and the signal was detected using the appropriate program. • 11. Analysis and processing of the raw data: • 12. The drug concentrations and the corresponding inhibition rates were input into GraphPad Prism5 for calculation, and the inhibition rate of the compounds were calculated as follows: inhibition rate (%)=(reading of positive well−reading of experimental well)/(reading of positive control well−reading of negative control well)×100%. Processing with GraphPad Prism5 software yielded the corresponding IC50 values (the concentration of the compound at which 50% of the highest inhibition of the enzyme is achieved).
For orientation: Time-resolved FRET reads energy transfer from a long-lived donor to a nearby acceptor.

Assay [3] has as its target VEGFR-2 kinase (Homo sapiens (Human), UniProt P35968). The assay can be described thus: Assay of small molecular compounds for inhibiting the activity of VEGFR-2 kinase (LANCE TR-FRET). Type of assay: biochemical. The following applies: read-out: VEGFR2 IC50. The procedure:
as §1, with “μL of 2×VEGFR2 kinase solution” for “μL of 2×c-MET kinase solution”, “concentration of 0.5 nM) was” for “concentration of 2 nM) was”, “temperature for 30 minutes. •” for “temperature for 5 minutes. •”, “concentration of 200 nM)/ATP (with” for “concentration of 400 nM)/ATP (with”, “5 μL/well 2×VEGFR-2 kinase solution” for “5 μL/well 2× c-MET kinase solution”, “raw data: The drug” for “raw data: • 12. The drug”

Assay [4] has as its target MER kinase (Homo sapiens (Human), UniProt Q12866). As to the kind of experiment: Assay of small molecular compounds for inhibiting the activity of MER kinase (LANCE TR-FRET). The assay is classed as biochemical. The protocol: The assay of small molecular compounds for inhibiting the activity of MER kinase is based on the LANCE TR-FRET technology of Perkin Elmer Inc., and the assay method is as follows: • 1. Dilution of compounds: a total of 11 concentrations were obtained using a 3-fold gradient dilution from the highest concentration of 2500 nM (the maximum final concentration of the drug used in this assay was 2500 nM, and the minimum final concentration was 0.042 nM). • 2. 2.5 μL of the gradient-diluted compounds were taken with a transfer pipette to a 384-well plate. • 3. Addition of enzyme: 5 μL of 2×MER kinase solution (with a concentration of 1 nM) was taken with a transfer pipette to the corresponding reaction well of the 384-well plate, mixed well and pre-reacted at room temperature for 5 minutes. • 4. 2.5 μL 4× ULight-labeled Ploy GT (with a concentration of 200 nM)/ATP (with a concentration of 20 μM) mixture was taken with a transfer pipette to the corresponding reaction well of the 384-well plate. • 5. Negative control: 2.5 μL/well 4× substrate/ATP mixture and 7.5 μL 1× Kinase Assay Buffer were added to the wells of the 384-well plate.
Positive control: 2.5 μL/well 4× substrate/ATP mixture, 2.5 μL/well 1× Kinase Assay Buffer containing 4% DMSO, and 5 μL/well 2×MER kinase solution were added to the 384-well plate. The final concentration of DMSO in the reaction system was 1%. • 6. The mixture was mixed well and then centrifuged and reacted at room temperature in dark for 60 min. • 7. Termination of the enzymatic reaction: 5 μL of 4× stop solution was taken with a transfer pipette to the wells of the 384-well plate, mixed and then centrifuged, and reacted at room temperature for 5 min. • 8. Development of the reaction: 5 μL of 4× detection solution was taken with a transfer pipette to the wells of the 384-well plate for color development, and the mixture was mixed and then centrifuged and reacted at room temperature for 60 min. • 9. The 384-well plate was placed into the Envision plate reader and the signal was detected using the appropriate program. • 10. Analysis and processing of the raw data:
The drug concentrations and the corresponding inhibition rates were input into GraphPad Prism5 for calculation, and the inhibition rate of the compounds were calculated as follows: inhibition rate (%)=(reading of positive well−reading of experimental well)/(reading of positive control well−reading of negative control well)×100%. Processing with GraphPad Prism5 software yielded the corresponding IC50 values (the concentration of the compound at which 50% of the highest inhibition of the enzyme is achieved).

Assay [5] deals with Ba/F3 LMNA-NTRK1 cells. The assay can be described thus: Assay for inhibiting the proliferation of Ba/F3 LMNA-NTRK1 cells (CCK-8). Type of assay: cell-based. The following applies: Mus musculus, BaF3. The procedure: In particular, the method of the assay of small molecular compounds for inhibiting cell proliferation is as follows: • 1. Cells cultured to a logarithmic growth phase (adherent cells need to be digested with trypsin and neutralized) were taken, pipetted evenly, transferred to a 15 mL centrifuge tube, and centrifuged at 1000 rpm at room temperature for 4 minutes; • 2. The supernatant was discarded; 5 mL of complete medium was added and pipetted evenly; 10 μL of cell suspension was taken out, mixed well with 10 μL of 0.4% trypan blue, and counted under a cell counter; the proportion of living cells was ensured to be above 90%; • 3. 80 μL of cell suspension per well was seeded into a 96-well plate according to the conditions shown in the attached table, and cultured overnight; in the outer 36 wells of the 96-well plate, no cells were added but only sterile water was added; only the inner 60 wells were used for cell assay and control; • 4. […] 20 μL of the corresponding compounds with different concentration gradients were added to each well of assay wells of the 96-well plate; 20 μL of complete medium was added to positive and negative control wells and shaken well; and the final concentration of DMSO in each well was 0.25%; • 6. After 72 hours of incubation, 10 μL of CCK-8 reagent was added to each well and further incubated at 37° C. for 1-2 hours; and the OD value was read at 450 nm; • 7. Cell survival rate (%)=[(As−Ab)/(Ac−Ab)]*100% • As: Assay well (medium containing cells, CCK-8, compound), • Ac: Control well (medium containing cells, CCK-8), • Ab: Blank well (CCK-8, medium without cell and compound), • 8. The values were imported into Graphpad Prism 5 software for IC50 calculation.

VEGFR-2 kinase, sequence (P35968 20-1356): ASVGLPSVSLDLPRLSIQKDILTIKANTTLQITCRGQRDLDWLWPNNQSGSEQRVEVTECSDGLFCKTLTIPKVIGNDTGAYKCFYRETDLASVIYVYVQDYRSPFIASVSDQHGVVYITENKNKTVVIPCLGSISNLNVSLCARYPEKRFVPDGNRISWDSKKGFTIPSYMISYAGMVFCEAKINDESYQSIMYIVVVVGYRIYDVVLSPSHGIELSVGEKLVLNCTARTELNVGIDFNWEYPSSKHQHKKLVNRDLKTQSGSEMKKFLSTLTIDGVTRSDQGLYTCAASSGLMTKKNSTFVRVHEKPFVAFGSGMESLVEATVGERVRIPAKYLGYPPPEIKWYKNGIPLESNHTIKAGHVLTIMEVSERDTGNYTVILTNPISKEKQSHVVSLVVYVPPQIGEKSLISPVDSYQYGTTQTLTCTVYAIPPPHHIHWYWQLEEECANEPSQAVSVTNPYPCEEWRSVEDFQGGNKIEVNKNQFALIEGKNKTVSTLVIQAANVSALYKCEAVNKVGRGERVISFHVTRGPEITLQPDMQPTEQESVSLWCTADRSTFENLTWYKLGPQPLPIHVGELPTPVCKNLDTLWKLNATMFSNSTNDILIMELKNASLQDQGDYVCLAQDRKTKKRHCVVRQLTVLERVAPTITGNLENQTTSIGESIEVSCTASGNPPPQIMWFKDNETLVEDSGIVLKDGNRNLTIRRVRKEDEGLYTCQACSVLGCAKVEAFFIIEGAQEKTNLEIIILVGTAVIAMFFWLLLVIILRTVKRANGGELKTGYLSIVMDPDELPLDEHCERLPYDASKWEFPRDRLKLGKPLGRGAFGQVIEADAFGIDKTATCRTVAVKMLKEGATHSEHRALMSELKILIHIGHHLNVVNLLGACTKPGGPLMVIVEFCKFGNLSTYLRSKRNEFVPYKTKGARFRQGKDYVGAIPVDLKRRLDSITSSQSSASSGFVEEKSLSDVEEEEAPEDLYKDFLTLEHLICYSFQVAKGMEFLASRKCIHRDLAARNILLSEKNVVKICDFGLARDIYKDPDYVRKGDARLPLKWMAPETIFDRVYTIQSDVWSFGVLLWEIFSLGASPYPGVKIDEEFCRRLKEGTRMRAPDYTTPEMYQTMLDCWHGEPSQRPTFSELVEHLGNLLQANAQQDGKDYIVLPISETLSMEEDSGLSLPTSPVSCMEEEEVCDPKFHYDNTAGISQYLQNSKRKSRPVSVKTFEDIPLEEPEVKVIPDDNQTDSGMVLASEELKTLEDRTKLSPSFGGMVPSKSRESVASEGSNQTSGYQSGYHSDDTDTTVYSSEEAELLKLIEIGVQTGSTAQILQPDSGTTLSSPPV
MER kinase, sequence (Q12866 21-999): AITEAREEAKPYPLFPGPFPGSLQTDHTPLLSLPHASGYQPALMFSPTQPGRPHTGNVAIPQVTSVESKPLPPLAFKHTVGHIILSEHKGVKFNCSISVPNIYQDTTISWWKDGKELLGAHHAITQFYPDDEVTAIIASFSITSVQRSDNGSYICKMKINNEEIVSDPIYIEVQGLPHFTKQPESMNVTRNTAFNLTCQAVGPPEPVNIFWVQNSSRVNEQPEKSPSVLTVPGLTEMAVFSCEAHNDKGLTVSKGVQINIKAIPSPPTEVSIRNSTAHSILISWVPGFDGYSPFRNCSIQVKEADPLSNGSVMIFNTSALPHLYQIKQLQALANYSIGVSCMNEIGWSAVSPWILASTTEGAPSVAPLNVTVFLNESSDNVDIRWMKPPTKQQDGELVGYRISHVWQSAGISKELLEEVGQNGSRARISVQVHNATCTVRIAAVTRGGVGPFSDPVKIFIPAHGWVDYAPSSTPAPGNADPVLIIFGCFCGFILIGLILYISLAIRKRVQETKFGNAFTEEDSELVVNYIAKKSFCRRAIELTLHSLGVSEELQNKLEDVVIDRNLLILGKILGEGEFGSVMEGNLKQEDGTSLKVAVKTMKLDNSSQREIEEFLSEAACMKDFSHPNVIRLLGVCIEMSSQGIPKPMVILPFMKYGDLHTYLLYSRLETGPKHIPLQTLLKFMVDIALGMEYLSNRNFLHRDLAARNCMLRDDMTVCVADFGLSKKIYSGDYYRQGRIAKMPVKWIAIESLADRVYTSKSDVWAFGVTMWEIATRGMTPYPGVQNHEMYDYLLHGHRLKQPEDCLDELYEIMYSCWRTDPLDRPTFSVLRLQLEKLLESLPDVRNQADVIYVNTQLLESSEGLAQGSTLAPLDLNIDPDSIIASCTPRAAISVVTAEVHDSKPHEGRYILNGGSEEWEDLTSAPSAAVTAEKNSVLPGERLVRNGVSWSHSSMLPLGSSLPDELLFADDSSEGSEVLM
c-MET kinase, sequence (P08581 25-1390): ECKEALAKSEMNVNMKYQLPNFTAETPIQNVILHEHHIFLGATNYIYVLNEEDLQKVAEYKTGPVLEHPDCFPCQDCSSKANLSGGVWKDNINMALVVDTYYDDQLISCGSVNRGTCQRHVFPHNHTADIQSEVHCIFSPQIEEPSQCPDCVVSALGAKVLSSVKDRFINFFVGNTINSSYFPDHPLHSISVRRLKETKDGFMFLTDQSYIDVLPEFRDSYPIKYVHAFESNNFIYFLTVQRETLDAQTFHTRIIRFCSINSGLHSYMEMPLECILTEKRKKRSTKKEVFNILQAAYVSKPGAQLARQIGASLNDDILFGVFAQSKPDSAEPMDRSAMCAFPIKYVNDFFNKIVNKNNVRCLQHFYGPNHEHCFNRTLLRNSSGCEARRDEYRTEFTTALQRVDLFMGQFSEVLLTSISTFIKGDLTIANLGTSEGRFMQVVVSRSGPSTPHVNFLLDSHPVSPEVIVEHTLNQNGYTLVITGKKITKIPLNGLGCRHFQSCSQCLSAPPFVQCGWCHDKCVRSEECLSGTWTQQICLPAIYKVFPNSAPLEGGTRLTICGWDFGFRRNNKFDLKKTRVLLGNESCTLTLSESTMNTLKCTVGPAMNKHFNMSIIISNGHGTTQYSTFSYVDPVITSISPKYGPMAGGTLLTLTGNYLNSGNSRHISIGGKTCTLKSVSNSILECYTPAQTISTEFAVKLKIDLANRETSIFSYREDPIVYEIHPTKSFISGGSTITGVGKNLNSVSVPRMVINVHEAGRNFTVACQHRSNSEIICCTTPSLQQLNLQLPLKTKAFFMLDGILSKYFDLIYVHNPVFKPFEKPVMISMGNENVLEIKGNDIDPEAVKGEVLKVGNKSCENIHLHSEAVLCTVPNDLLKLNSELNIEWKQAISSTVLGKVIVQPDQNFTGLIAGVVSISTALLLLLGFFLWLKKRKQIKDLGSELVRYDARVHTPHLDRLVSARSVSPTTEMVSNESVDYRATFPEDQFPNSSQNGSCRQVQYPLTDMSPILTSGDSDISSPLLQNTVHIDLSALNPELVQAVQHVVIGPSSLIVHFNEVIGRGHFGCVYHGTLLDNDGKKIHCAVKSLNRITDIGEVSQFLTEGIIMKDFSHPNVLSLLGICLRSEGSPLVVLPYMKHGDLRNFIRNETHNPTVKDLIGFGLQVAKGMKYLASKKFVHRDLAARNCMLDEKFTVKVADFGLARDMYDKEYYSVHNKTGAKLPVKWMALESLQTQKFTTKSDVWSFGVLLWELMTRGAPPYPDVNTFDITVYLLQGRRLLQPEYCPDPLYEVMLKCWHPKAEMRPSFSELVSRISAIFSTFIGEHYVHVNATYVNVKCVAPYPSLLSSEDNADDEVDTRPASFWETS

As for `CCn1cc(C(=O)Nc2ccc(Oc3ccnc4cc(OC5CC5)c5c(c34)OCCO5)cc2)c(=O)n(-c2ccc(F)cc2)c1=O` [Example 152, N-(4-((5-cyclopropyloxy-2,3-dihydro-[1,4]dioxino[2,3-f]quinolin-10-yl)oxy)phenyl)-3-(4-fluorophenyl)-1-ethyl-2,4-dioxo-1,2,3,4-tetrahydropyrimidine-5-carboxamide], the pIC50 was less than 5.30 in assay [1], not below 7.30 in assay [2] and less than 5.30 in assay [3].

`CCOc1ccn(C2CCCCC2)c(=O)c1C(=O)Nc1ccc(Oc2ccnc3cc(OC)c4c(c23)OCCO4)c(F)c1` [Example 119, 1-cyclohexyl-4-ethoxy-N-(3-fluoro-4-((5-methoxy-2,3-dihydro-[1,4]dioxino[2,3-f]quinolin-1 0-yl)oxy)phenyl)-2-oxo-1,2-dihydropyridine-3-carboxamide]: the results for the pIC50 in assay [1], in assay [4] and in assay [3] were less than 5.30, 5.30 to 6.30 and less than 5.30, respectively.

For `COc1cn(-c2ccc(F)cc2C)nc1C(=O)Nc1ccc(Oc2ccnc3cc(OC)c4c(c23)OCCO4)c(F)c1` [Example 24, 1-(4-fluoro-2-methylphenyl)-N-(3-fluoro-4-((5-methoxy-2,3-dihydro-[1,4]dioxino[2,3-f]quinolin-10-yl)oxy)phenyl)-4-methoxy-1H-pyrazole-3-carboxamide], the pIC50 is more than 7.30 in assay [1], 6.30 to 7.30 in assay [2], 6.30 to 7.30 in assay [4] and more than 7.30 in assay [5].

Consider `N#CCCCOc1cc2nccc(Oc3ccc(NC(=O)c4cccn(-c5ccc(F)cc5)c4=O)c(Cl)c3)c2c2c1OCCO2` [Example 131, N-(2-chloro-4-((5-(3-cyanopropoxy)-2,3-dihydro-[1,4]dioxino[2,3-f]quinolin-10-yl)oxy)phenyl)-1-(4-fluorophenyl)-2-oxo-1,2-dihydropyridine-3-carboxamide], for which the pIC50 in assay [1] is more than 7.30; in assay [2] it was not below 7.30; in assay [4] it was 6.30 to 7.30; in assay [5], more than 7.30.

Turning to `Cn1cc(C(=O)Nc2ccc(Oc3ccnc4cc(OC5CC5)c5c(c34)OCCO5)cc2)c(=O)n(-c2ccc(F)cc2)c1=O` [Example 151, N-(4-((5-cyclopropyloxy-2,3-dihydro-[1,4]dioxino[2,3-f]quinolin-10-yl)oxy)phenyl)-3-(4-fluorophenyl)-1-methyl-2,4-dioxo-1,2,3,4-tetrahydropyrimidine-5-carboxamide], the results for the pIC50 in assay [1], in assay [2] and in assay [3] were 5.30 to 6.30, not below 7.30 and 5.30 to 6.30, respectively.

In the case of `COc1cc2nccc(Oc3ccc(NC(=O)c4cn(CC(=O)OC(C)(C)C)c(=O)n(-c5ccc(F)cc5)c4=O)cc3F)c2c2c1OCCO2` [Example 103, tert-butyl 2-(5-((3-fluoro-4-((5-methoxy-2,3-dihydro-[1,4]dioxino[2,3-f]quinolin-10-yl)oxy)phenyl)carbamoyl)-3-(4-fluorophenyl)-2,4-dioxo-3,4-dihydropyrimidin-1(2H)-yl)acetate], the results for the pIC50 in assay [4] and in assay [3] were 6.30 to 7.30 and 5.30 to 6.30, respectively.

Turning to `COc1cc2nccc(Oc3ccc(NC(=O)c4cn(C(C)C)c(=O)n(Cc5ccc(F)cc5)c4=O)cc3F)c2c2c1OCCO2` [Example 111, N-(3-fluoro-4-((5-methoxy-2,3-dihydro-[1,4]dioxino[2,3-f]quinolin-10-yl)oxy)phenyl)-3-(4-fluorobenzyl)-1-isopropyl-2,4-dioxo-1,2,3,4-tetrahydropyrimidine-5-carboxamide], the results for the pIC50 in assay [1], in assay [2] and in assay [4] were 5.30 to 6.30, 5.30 to 6.30 and 6.30 to 7.30, respectively.
